As a reminder, the IC50 is the concentration at which inhibition is half-maximal. Usually AC50 stands for the midpoint of the concentration-response curve, whichever way the signal moves.

Structures are written as SMILES. Activity calls are given as the source filed them.

The results in this text go back to ChEMBL document CHEMBL1201862, “PubChem BioAssay data set” (2004).

Assay [1] deals with T1, Protein skinhead-1 (Caenorhabditis elegans, UniProt P34707).
T1 sequence (P34707 whole entry): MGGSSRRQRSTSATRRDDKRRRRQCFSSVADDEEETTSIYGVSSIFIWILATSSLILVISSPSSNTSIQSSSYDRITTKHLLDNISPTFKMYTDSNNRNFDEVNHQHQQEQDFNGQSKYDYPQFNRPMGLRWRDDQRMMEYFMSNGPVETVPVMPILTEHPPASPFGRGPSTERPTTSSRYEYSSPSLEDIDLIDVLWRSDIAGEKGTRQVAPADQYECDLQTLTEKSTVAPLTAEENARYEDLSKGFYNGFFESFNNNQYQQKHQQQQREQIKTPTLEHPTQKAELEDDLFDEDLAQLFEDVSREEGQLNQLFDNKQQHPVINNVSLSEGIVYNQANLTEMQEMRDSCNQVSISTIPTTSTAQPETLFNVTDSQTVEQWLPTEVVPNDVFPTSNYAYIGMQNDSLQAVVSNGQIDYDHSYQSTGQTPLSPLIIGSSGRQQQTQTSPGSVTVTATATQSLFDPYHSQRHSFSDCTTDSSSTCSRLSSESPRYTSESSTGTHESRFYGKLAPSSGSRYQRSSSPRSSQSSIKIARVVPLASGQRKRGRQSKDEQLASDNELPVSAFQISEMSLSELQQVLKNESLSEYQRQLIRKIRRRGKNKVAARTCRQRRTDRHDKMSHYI
In kind it is functional.

Assay [2] deals with T2, Heat shock factor protein 1 (Mus musculus, UniProt P38532).
T2 sequence (P38532 whole entry): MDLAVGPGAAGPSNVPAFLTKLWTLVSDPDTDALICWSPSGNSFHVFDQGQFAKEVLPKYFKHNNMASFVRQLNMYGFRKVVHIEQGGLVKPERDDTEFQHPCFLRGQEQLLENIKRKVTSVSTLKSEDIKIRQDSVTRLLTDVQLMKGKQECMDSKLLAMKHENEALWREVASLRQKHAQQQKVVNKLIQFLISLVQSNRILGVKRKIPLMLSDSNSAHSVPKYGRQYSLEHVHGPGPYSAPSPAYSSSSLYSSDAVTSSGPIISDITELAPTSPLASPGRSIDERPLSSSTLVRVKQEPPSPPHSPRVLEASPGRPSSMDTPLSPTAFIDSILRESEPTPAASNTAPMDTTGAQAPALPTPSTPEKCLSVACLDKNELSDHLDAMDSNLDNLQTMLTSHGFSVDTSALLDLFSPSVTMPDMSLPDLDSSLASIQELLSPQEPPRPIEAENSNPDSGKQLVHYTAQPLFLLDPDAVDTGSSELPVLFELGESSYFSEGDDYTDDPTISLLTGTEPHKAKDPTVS
As to the kind of experiment: enhancement of HSF1-driven luciferase signal – cell-based, NIH3T3, luminescence, dose retest, confirmation (AID 435004).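 Further: stress induced by proteasome inhibitor MG132 added 30 min after compound; luciferase reporter driven by HSF1 response element in NIH3T3 cells; actives raise luminescence as potentiators of the MG132 stress response.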 The class given is functional.

Assay [3] has as its target Heat shock protein HSP 90-alpha (Homo sapiens, UniProt P07900). In kind it is functional, organism-based.
The target of assay [4] is T3, Fatty acid synthase (Homo sapiens, UniProt P49327). The assay is described as follows: inhibition of human FAS-TE enzyme activity – biochemical, endpoint fluorescence intensity, uHTS hits, dose response (AID 624327).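 Further: fluorescence from hydrolysis of an O-methyl fluorescein acyl ester substrate by the enzyme.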 The class given is functional.
The target in assay [5] is T3, Fatty acid synthase. As to the kind of experiment: inhibition of human FAS-TE enzyme activity – biochemical, kinetic fluorescence intensity, dose response (AID 624326).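 Further: rate of fluorescence rise from hydrolysis of a fluorogenic O-methyl fluorescein ester substrate.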 In kind it is functional.
Assay [6] deals with Voltage-dependent T-type calcium channel subunit alpha-1H (Homo sapiens, UniProt O95180). The class given is functional.
The target of assay [7] is T4, Carboxy-terminal domain RNA polymerase II polypeptide A small phosphatase 1 (Homo sapiens, UniProt Q9GZU7).
T4 sequence (Q9GZU7 whole entry): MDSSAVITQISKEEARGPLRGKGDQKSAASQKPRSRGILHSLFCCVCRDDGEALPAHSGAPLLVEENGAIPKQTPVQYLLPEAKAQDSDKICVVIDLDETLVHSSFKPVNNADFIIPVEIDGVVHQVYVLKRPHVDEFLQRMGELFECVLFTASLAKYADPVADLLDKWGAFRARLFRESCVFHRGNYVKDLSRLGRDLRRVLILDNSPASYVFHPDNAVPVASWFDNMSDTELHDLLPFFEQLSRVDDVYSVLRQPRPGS
As to the kind of experiment: CTDSP1 inhibitors, concentration-response, biochemical, absorbance readout, ultra-high-throughput screen actives (AID 540297). The class given is functional.

A short description of assay [8]: Luminescence Cell-Based Dose Retest to Confirm Inhibitors of Cancer Stem Cells. [Related pubchem assays (depositor defined):AID2717, AID2721]. In kind it is functional. The conditions noted are these: Homo sapiens.
The nature of assay [9]: reduction of Shn3 3'UTR-driven luciferase in osteoblasts – cell-based, Clone20 osteoblasts, firefly luciferase, cherry-picked, dose response (AID 624132).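 Further: firefly luciferase luminescence from reporter carrying the Shn3 3'UTR in osteoblasts.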 In kind it is functional.
Assay [10] in a line: loss of viability in HepG2 cells – cell-based, CellTiter-Glo, cherry-picked, cytotoxicity control for Shn3 inhibitor project, dose response (AID 624134). The class given is functional. (ATP-based viability assays read luminescence as a measure of living cells.)
The target of assay [11] is Paired box protein Pax-8 (Homo sapiens, UniProt Q06710). As to the kind of experiment: PAX8 transcriptional activity inhibition in RMG-I – RMG-I cells, luciferase, cherry-pick, dose response (AID 687027).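 Further: luciferase reporter driven by Pax8 target thyroperoxidase promoter measured by SteadyGlo luminescence.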 The class given is functional, cell-based.
Assay [12] in a line: non-specific 3'UTR reporter inhibition in Clone20-Shn3RL – cell-based, Renilla luciferase, cherry-picked, counter-screen for Shn3 inhibitor project, dose response (AID 624133). The class given is functional. In general terms: The purpose of a counterscreen is to sort out artefacts and off-target activity.
Assay [13] has as its target T5, Corticotropin-releasing factor receptor 2/Corticotropin-releasing factor-binding protein (Homo sapiens, UniProt P24387+Q13324).
T5 sequence (Q13324 whole entry): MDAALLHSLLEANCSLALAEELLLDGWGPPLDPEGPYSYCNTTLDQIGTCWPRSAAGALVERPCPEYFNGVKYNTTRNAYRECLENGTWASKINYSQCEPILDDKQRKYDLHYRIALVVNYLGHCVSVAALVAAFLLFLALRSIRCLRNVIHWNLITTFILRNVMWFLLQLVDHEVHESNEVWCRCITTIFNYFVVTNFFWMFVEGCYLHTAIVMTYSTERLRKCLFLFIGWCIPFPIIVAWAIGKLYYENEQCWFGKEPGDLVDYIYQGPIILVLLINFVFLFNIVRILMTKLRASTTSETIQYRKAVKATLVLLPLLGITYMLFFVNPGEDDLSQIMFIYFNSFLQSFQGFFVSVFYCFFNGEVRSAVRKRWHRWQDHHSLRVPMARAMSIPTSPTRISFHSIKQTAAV
T5 sequence (P24387 whole entry): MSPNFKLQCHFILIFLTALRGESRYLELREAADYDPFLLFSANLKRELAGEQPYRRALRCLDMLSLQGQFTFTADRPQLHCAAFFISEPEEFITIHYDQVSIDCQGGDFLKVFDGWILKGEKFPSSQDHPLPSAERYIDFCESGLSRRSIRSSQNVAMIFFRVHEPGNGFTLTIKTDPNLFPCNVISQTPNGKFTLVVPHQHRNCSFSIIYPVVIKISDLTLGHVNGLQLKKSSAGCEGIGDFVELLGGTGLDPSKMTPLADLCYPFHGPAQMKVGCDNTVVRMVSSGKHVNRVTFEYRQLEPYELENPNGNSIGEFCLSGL
The assay is described as follows: activators of CRF receptor 2 with binding protein – uHTS hits, confirmation (AID 602473). In kind it is functional. The following applies: read-out: EC50_Mean.

The target in assay [14] is T6, High affinity choline transporter 1 (Homo sapiens, UniProt Q9GZV3).
T6 sequence (Q9GZV3 whole entry): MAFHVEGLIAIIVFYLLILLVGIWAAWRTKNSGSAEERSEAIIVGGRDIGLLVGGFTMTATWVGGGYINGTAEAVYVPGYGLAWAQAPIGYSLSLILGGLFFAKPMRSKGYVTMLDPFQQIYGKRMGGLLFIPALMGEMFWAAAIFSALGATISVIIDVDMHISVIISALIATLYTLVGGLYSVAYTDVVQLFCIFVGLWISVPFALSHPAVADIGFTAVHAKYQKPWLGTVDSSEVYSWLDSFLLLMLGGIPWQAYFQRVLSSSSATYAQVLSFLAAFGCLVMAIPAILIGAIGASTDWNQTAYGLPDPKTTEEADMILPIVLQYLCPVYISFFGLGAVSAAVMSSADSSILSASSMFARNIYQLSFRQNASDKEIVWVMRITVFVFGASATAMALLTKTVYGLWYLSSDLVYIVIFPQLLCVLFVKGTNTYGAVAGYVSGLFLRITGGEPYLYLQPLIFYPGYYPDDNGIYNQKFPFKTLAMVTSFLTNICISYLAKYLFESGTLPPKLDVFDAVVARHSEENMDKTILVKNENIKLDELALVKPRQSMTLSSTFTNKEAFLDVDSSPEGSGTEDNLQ
The assay is described as follows: human choline transporter blockers, potency – cell-based, 5-point CRC, membrane potential dye, dose response (AID 504840). The class given is functional.

Sequence of Voltage-dependent T-type calcium channel subunit alpha-1H (O95180 whole entry, the tested form may be a part): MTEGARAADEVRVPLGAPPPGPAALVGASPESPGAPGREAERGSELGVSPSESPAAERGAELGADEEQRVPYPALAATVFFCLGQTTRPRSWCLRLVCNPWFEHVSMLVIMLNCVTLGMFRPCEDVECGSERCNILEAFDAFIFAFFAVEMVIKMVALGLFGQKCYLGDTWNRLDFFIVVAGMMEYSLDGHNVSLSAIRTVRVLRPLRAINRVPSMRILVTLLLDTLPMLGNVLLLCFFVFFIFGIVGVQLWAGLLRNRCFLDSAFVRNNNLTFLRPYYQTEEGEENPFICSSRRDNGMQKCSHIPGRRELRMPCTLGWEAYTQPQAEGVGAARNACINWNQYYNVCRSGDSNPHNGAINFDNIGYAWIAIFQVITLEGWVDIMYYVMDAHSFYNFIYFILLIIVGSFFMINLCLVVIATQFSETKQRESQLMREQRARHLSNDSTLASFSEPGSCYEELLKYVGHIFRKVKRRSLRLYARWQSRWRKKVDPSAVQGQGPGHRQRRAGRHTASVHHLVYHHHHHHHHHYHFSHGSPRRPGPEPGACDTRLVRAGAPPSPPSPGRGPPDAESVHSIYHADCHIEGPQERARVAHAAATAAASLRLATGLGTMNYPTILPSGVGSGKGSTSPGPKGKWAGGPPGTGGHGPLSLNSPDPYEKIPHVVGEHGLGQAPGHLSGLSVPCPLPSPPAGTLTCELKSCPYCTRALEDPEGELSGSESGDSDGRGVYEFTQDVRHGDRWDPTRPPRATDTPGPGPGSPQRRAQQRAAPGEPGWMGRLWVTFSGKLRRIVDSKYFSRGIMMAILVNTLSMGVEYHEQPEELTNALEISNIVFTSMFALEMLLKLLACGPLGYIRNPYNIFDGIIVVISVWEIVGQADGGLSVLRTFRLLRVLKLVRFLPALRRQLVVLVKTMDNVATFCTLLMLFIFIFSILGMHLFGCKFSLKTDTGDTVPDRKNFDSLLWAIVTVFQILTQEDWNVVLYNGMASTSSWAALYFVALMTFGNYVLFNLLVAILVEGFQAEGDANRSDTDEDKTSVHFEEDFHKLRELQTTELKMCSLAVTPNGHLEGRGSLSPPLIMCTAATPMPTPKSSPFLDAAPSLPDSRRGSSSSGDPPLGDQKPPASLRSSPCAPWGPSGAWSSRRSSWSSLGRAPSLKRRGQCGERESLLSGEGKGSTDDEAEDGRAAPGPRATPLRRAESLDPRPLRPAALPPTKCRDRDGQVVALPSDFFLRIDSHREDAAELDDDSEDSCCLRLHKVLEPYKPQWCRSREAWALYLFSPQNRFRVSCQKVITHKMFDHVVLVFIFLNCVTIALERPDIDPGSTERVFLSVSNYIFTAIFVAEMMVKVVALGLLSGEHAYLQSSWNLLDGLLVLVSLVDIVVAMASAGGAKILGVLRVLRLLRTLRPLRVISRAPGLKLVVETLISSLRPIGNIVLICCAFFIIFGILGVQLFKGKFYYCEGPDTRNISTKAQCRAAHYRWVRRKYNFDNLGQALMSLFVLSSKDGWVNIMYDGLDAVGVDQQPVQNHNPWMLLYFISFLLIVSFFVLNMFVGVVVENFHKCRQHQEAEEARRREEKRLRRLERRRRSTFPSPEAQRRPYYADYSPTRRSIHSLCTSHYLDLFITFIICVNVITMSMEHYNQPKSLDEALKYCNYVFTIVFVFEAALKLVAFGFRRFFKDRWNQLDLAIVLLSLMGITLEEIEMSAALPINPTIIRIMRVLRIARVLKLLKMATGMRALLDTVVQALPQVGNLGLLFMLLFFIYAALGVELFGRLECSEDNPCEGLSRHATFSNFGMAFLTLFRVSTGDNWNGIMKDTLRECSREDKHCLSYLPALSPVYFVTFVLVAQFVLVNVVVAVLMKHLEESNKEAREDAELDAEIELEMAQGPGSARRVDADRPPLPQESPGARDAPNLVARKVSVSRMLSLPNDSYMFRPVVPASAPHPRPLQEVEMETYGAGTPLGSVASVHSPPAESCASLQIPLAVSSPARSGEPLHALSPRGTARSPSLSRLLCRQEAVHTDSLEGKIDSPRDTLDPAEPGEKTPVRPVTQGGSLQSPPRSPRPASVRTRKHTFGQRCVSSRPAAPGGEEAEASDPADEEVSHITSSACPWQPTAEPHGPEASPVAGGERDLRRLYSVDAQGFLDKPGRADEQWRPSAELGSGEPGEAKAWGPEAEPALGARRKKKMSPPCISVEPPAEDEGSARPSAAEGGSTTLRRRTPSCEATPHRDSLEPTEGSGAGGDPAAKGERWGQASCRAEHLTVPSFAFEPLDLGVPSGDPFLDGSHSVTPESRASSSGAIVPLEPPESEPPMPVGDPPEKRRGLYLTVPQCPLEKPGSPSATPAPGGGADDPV
T3 sequence (P49327 whole entry): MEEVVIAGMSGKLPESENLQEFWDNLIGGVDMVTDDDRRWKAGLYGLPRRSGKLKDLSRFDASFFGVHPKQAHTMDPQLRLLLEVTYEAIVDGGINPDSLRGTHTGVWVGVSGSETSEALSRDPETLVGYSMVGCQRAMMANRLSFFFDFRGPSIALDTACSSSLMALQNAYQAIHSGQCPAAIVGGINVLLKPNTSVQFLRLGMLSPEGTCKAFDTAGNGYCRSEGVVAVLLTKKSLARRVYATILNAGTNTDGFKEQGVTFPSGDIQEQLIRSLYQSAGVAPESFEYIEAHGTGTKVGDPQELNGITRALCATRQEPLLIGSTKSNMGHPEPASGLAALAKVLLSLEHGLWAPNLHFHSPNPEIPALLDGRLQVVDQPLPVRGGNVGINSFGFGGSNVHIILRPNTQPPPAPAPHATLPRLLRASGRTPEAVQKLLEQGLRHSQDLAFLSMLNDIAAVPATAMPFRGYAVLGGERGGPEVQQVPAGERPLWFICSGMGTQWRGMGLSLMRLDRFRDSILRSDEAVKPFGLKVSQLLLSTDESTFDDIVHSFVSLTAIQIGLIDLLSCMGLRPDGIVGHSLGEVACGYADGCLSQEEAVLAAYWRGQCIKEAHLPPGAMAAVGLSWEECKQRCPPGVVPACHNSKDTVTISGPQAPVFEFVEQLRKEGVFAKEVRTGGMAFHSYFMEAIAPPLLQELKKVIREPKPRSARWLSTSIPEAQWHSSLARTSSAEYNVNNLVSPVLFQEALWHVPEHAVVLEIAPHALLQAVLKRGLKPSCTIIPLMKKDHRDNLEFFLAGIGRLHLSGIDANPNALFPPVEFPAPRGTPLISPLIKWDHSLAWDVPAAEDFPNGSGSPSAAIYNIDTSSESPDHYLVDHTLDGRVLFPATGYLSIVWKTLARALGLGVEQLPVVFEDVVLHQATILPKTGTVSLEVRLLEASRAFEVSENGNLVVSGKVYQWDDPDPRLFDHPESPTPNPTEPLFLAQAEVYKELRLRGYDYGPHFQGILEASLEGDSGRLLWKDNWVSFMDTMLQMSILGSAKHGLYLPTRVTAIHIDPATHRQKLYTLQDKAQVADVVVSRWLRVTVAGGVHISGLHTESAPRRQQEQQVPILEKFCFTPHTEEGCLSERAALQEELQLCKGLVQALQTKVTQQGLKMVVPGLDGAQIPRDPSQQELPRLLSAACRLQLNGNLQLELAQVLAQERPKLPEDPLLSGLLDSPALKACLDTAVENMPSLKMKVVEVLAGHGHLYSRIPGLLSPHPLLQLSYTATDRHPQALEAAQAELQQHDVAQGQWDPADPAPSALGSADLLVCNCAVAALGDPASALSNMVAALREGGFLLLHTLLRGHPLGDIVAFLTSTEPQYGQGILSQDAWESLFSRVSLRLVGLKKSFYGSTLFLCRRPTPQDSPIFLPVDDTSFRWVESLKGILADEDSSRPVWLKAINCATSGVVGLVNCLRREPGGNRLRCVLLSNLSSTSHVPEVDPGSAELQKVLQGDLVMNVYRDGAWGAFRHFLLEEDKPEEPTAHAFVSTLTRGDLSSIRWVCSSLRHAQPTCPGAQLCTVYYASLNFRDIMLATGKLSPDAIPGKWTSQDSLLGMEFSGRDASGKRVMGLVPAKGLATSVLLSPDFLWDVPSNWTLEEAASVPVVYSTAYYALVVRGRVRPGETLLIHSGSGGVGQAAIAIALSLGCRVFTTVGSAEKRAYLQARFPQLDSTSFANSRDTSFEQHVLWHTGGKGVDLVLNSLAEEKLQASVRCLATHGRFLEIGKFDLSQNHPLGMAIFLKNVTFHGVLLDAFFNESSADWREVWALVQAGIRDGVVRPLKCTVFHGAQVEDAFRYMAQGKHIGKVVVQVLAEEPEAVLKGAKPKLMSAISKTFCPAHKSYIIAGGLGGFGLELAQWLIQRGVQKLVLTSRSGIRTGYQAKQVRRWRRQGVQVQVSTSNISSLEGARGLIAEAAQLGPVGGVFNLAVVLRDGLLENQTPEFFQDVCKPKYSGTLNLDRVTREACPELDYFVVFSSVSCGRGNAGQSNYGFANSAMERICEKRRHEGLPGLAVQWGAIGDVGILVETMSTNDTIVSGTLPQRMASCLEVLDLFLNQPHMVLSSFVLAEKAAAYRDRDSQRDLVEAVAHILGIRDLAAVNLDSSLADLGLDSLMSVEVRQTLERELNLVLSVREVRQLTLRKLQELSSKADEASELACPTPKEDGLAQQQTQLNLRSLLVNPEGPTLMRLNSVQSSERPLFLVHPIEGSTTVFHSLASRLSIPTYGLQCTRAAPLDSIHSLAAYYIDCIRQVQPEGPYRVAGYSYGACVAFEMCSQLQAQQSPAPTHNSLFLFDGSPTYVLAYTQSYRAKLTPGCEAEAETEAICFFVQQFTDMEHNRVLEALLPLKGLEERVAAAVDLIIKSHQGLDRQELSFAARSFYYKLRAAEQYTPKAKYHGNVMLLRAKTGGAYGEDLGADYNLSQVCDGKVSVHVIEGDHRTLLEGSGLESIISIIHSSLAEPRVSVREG

On to `Cc1c(CN2CCCC(C(=O)Nc3cccc(-n4cccn4)c3)C2)cnn1C` (stereo not drawn), for which the IC50 in assay [1] is > 100 µM (inactive).
For `COc1cc(/C=C2\SC(=S)N(Nc3ncc(C(F)(F)F)cc3Cl)C2=O)ccc1O`, the EC50 in assay [2] was 36 µM (active). Besides, the concentration at half-maximal activity (AC50) in assay [3] was 12.4 µM (active).
On to `CN(CC(=O)Nc1ccc(Cl)c(C(F)(F)F)c1)C(=O)C1CC(=O)N(c2ccc3c(c2)OCCO3)C1` (stereo not drawn), for which the half-inhibitory concentration (IC50) in assay [4] was 10.4 µM (active); in assay [5], 11.3 µM (active).
Regarding `CCCn1c(NCc2c[nH]c3ccccc23)nc2ccccc21`, in assay [6], the EC50 was 5.89 µM (active).
Turning to `CC(C)CCC(C(=O)NC(C)c1ccccc1)C(=O)NC(C)c1ccccc1` (stereo not drawn), the half-inhibitory concentration (IC50) in [7] was 11.7 µM (active).
As to `CCOc1ccccc1NC(=O)C(CC(C)C)NC(=O)C1CCC(C)CC1` (stereo not drawn), the IC50 in assay [1] is > 100 µM (inactive).
For the compound `CC1CCCN(C(=O)CSCC(=O)Nc2nc(-c3cccs3)cs2)C1` (stereo not drawn), the EC50 in assay [6] is 4.52 µM (active).
In the case of `O=C(OCc1ccc([N+](=O)[O-])cc1)C1CCN(S(=O)(=O)c2ccccc2)CC1`, the half-inhibitory concentration (IC50) is 9.66 µM (active) in assay [4] and 9.2 µM (active) in assay [5].
Taken in the same sequence, the figures for `O=C(/C=C/c1cccc([N+](=O)[O-])c1)NCCSc1ccccc1` were 4.58 µM (active) and 5.62 µM (active).
Regarding `O=C(c1cccc(Cl)c1)N(Cc1cccs1)C1CCS(=O)(=O)C1` (stereo not drawn), the IC50 in [1] was > 100 µM (inactive).
Turning to `COc1ccc(-c2sc3ccccc3c2/C=C/c2ccncc2)cc1`, the half-maximal activity concentration (AC50) is 4.57 µM (active) in assay [8] and 3.9 µM (active) in assay [3].
Regarding `O=C(CCNC(=O)c1ccccc1)NN=Cc1ccc(Br)o1`, the IC50 in assay [7] is 10.2 µM (active).
Turning to `COc1ccc(NC(=O)C2CCCN2S(=O)(=O)c2ccc3c(c2)CCC(=O)N3)cc1` (stereo not drawn), the EC50 in assay [6] was 9.23 µM (active).
`O=C(NCc1ccco1)/C(=C\c1cccc([N+](=O)[O-])c1)NC(=O)c1ccco1`: the half-maximal inhibitory concentration (IC50) was 9.41 µM (active) in assay [4] and 8.51 µM (active) in assay [5].
As to `CCN(CC)P(=O)(c1n(CC)cc[n+]1CC)N(CC)CC`, the concentration for half-maximal inhibition (IC50) in assay [7] was 3.98 µM (active).
In the case of `COc1ccc(S(=O)(=O)NC2CC3CCC2C3)cc1Cl` (stereo not drawn), the AC50 in [3] was 3.41 µM (active).
In the case of `CC(=O)c1cccc(-c2csc3ncnc(Sc4nnnn4C)c23)c1`, the AC50 in assay [9] was 4.72 µM (active); in [10] it was 53.4 µM (active); in assay [11] it was 3.1 µM (active); in assay [12], 15.5 µM (active).
With `O=C(Nc1ccc(S(=O)(=O)Nc2nccs2)cc1)c1ccc(O)nc1`, the IC50 in [7] is 7.11 µM (active).
As to `CCN(CC)C(=S)Sc1c(-c2ccccc2)c2cc(Cl)ccc2[nH]c1=O`, the IC50 in assay [1] is > 100 µM (inactive). In addition, the EC50 in [13] is > 53 µM (inactive).
On to `O=C(NCCc1ccccc1)c1ccc2c(=O)[nH]c3c(C(=O)NCC4CCCO4)sc(=S)n3c2c1` (stereo not drawn), for which the half-maximal inhibitory concentration (IC50) in assay [14] is 16.6 µM (active).
On the same count and under the same terms, in the case of `CCN(CC)CCCCCCCCOC(=O)c1cc(OC)c(OC)c(OC)c1` it was 15.1 µM (active).
`Cc1[nH]c2ccccc2c1NC(=O)CN1CCN(c2cccc(C(F)(F)F)c2)CC1`: the EC50 in assay [6] was 4.61 µM (active).
For the compound `Cc1nc(SCC(=O)NCc2ccc3c(c2)OCO3)c(C#N)c2c1CCCC2`, the EC50 in assay [6] was 5.41 µM (active).
On the same count and under the same terms, in the case of `O=C(NCc1ccc2c(c1)OCO2)C1CC(c2ccc(Cl)cc2)=NO1` (stereo not drawn) it was 0.496 µM (active).
As for `O=[N+]([O-])c1cccc(S(=O)(=O)Nc2ccc(Cc3ccncc3)cc2)c1`, the IC50 in [14] was 10.5 µM (active).
For `CCCCCOC(=O)c1ccc(N2C(=O)C3C4C=CC(C4)C3C2=O)cc1` (stereo not drawn), the half-maximal inhibitory concentration (IC50) in assay [4] was 2.93 µM (active); in [5] it was 2.43 µM (active).
As to `CCC1Sc2ccccc2N(CC(=O)NCCC2=CCCCC2)C1=O` (stereo not drawn), the EC50 in assay [6] is 4.76 µM (active).
For `O=C(Nc1cc([N+](=O)[O-])ccc1Cl)C(Sc1ccccc1)c1ccccc1` (stereo not drawn), the results for the IC50 in assay [4] and in [5] were 4.75 µM (active) and 2.86 µM (active), respectively.
For the compound `COc1ccc([C@H]2CC(=O)C=C(c3ccc(F)cc3OCc3ccccc3)C2)cc1OC`, the results for the AC50 in assay [9], in assay [10] and in assay [12] were 7.36 µM (active), > 70 µM (inactive) and 16.1 µM (active), respectively.
